Laboratory results reported in US11497751B2, “Modulators of Rho-associated protein kinase” (Redx Pharma PLC, priority 2018, dated 2022).
Structures can show the parent of a compound that is named as a salt.

target: T1, N-terminal 6His-tagged ROCK2 catalytic domain 11-552 (Homo sapiens, UniProt O75116); test: ROCK2 binding activity: ROCK2 inhibition, ADP-Glo Kinase Assay; type: biochemical; conditions: 1.25 nM ROCK2, 100 μM long S6 peptide, 20 μM ATP; 1 hour pre-incubation; read-out: ADP-Glo kinase activity assay ROCK2 Category
T1 construct: N-terminal 6His-tagged ROCK2 catalytic domain 11-552; 6His (N); purchased Dundee University, UK; host or cells: baculovirus expression system
How it was run: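 1.25 nM baculovirus-expressed ROCK2 pre-incubated 1 h with compound (1% DMSO), then 100 μM long S6 peptide and 20 μM ATP added for 1 h; 50 mM HEPES pH 7.5, 10 mM Mg acetate, 1 mM DTT. ADP-Glo luminescence; IC50 from four-parameter logistic fit.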

T1 sequence (O75116 11-552): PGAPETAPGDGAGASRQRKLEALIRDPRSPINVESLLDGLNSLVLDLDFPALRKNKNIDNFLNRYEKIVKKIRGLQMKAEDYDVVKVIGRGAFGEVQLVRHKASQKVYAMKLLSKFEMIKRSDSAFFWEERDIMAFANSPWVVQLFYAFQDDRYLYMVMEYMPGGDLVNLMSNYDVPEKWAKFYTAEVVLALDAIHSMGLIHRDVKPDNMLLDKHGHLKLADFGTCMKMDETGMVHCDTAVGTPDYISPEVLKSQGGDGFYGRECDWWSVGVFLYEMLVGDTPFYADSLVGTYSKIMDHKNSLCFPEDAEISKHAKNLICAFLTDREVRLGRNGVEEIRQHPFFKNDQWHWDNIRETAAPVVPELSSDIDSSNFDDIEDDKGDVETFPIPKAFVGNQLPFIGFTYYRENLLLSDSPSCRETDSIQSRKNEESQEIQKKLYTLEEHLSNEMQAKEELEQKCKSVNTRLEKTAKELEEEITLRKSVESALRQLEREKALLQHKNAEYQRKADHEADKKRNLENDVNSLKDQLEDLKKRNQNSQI

`COc1cc(-c2nc(Nc3ccc4[nH]ncc4c3Cl)n(C)n2)ccc1OCC(=O)NC1CCC(O)CC1` (centres unmarked) [Example 212] and `COc1cc(-c2nc(Nc3ccc4[nH]ncc4c3Cl)n(C)n2)ccc1OCC(=O)NC1CCCC1` [Example 217] cannot be ordered by IC50: under 300 nM for the first, under 300 nM for the second.

`COc1cc(-c2nc(Nc3ccc4[nH]ncc4c3Cl)n(C)n2)ccc1OCC(=O)N[C@@H]1CCCC[C@H]1O` [Example 213] and `COc1cc(-c2nc(Nc3ccc4[nH]ncc4c3Cl)n(C)n2)ccc1OCC(=O)NC1CC(O)C1` (centres unmarked) [Example 214] cannot be ordered by IC50: under 300 nM for the first, under 300 nM for the second.

`COc1cc(-c2nc(Nc3ccc4[nH]ncc4c3Cl)n(C)n2)ccc1OCC(=O)NC(C)c1ccccn1` (centres unmarked) [Example 215] and `COc1cc(-c2nc(Nc3ccc4[nH]ncc4c3Cl)n(C)n2)ccc1OCC(=O)NC(C)c1cccnc1` (centres unmarked) [Example 216] cannot be ordered by IC50: under 300 nM for the first, under 300 nM for the second.

`COc1cc(-c2nc(Nc3ccc4[nH]ncc4c3Cl)n(C)n2)ccc1OCC(=O)N[C@@H](C)C(F)(F)F` [Example 218] and `COc1cc(-c2nc(Nc3ccc4[nH]ncc4c3Cl)n(C)n2)ccc1OCC(=O)N[C@H](C)C(F)(F)F` [Example 219] cannot be ordered by IC50: under 300 nM for the first, under 300 nM for the second.

`CS(=O)(=O)NCCOc1ccc(-c2nnc(Nc3ccc4[nH]ncc4c3)[nH]2)cc1` [Example 220, N-[2-[4-[5-(1H-Indazol-5-ylamino)-4H-1,2,4-triazol-3-yl]phenoxy]ethyl]methanesulfonamide] and `CC(=O)NCCOc1ccc(-c2nnc(Nc3ccc4[nH]ncc4c3)[nH]2)cc1` [Example 221] fall in the same range of IC50: 300 to 3000 nM for the first, 300 to 3000 nM for the second.

First: c1ccc(NCCOc2ccc(-c3nnc(Nc4ccc5[nH]ncc5c4)[nH]3)cc2)nc1 [Example 222]
Second: CC(C)CC(=O)NCCOc1ccc(-c2nnc(Nc3ccc4[nH]ncc4c3)[nH]2)cc1 [Example 223]
The IC50 of the first is lower: under 300 nM for the first, 3000 to 10000 nM for the second.

Compared with `CC(C)NC(=O)NCCOc1ccc(-c2nnc(Nc3ccc4[nH]ncc4c3)[nH]2)cc1` [Example 224, 1-[2-[4-[5-(1H-indazol-5-ylamino)-4H-1,2,4-triazol-3-yl]phenoxy]ethyl]-3-isopropyl-urea dihydrochloride], `O=C(NCCOc1ccc(-c2nnc(Nc3ccc4[nH]ncc4c3)[nH]2)cc1)N1CCCC1` [Example 225] is higher in IC50: under 300 nM for the first, 300 to 3000 nM for the second. The first is the more potent here.

First: CC(C)NS(=O)(=O)COc1ccc(-c2n[nH]c(Nc3ccc4[nH]ncc4c3)n2)cc1 [Example 226, 1-[4-[5-(1H-indazol-5-ylamino)-4H-1,2,4-triazol-3-yl]phenoxy]-N-isopropyl-methanesulfonamide]
Second: CC(C)NCCOc1ccc(-c2n[nH]c(Nc3ccc4[nH]ncc4c3)n2)cc1 [Example 230, N-[5-[4-[2-(isopropylamino)ethoxy]phenyl]-4H-1,2,4-triazol-3-yl]-1H-indazol-5-amine]
The IC50 of the first is lower: under 300 nM for the first, 300 to 3000 nM for the second.

`COc1cc(-c2nc(Nc3ccc4[nH]ncc4c3)n[nH]2)ccc1OCC(=O)NC1CN(C(C)=O)C1` [Example 227, N-(1-acetylazetidin-3-yl)-2-[4-[5-(1H-indazol-5-ylamino)-4H-1,2,4-triazol-3-yl]-2-methoxy-phenoxy]acetamide] and `COc1cc(-c2nc(Nc3ccc4[nH]ncc4c3)nn2C)ccc1OCC(=O)NC(C)C` [Example 232, 2-[4-[5-(1H-indazol-5-ylamino)-2-methyl-1,2,4-triazol-3-yl]-2-methoxy-phenoxy]-N-isopropyl-acetamide] fall in the same range of IC50: 300 to 3000 nM for the first, 300 to 3000 nM for the second.

`NC1(COc2ccc(-c3nnc(Nc4ccc5[nH]ncc5c4)[nH]3)cc2)COC1` [Example 228, N-[5-[4-[(3-aminooxetan-3-yl)methoxy]phenyl]-4H-1,2,4-triazol-3-yl]-1H-indazol-5-amine] and `CCNC1(COc2ccc(-c3nnc(Nc4ccc5[nH]ncc5c4)[nH]3)cc2)COC1` [Example 229, N-[5-[4-[[3-(ethylamino)oxetan-3-yl]methoxy]phenyl]-4H-1,2,4-triazol-3-yl]-1H-indazol-5-amine] fall in the same range of IC50: 300 to 3000 nM for the first, 300 to 3000 nM for the second.

`COc1cc(-c2nc(Nc3ccc4[nH]ncc4c3)n(C)n2)ccc1COC(=O)NC1CCNC1` (centres unmarked) [Example 231, [4-[5-(1H-indazol-5-ylamino)-1-methyl-1,2,4-triazol-3-yl]-2-methoxy-phenyl]methyl N-pyrrolidin-3-ylcarbamate] and `COc1cc(-c2nc(Nc3ccc4[nH]ncc4c3)n(C)n2)ccc1C(=O)NCC(F)(F)F` [Example 240, 4-[5-(1H-indazol-5-ylamino)-1-methyl-1,2,4-triazol-3-yl]-2-methoxy-N-(2,2,2-trifluoroethyl)benzamide] cannot be ordered by IC50: under 300 nM for the first, under 300 nM for the second.

`COc1cc(-c2nc(Nc3ccc4[nH]nc(C)c4c3)n(C)n2)ccc1OCC(=O)NC(C)C` [Example 233, N-isopropyl-2-[2-methoxy-4-[1-methyl-5-[(3-methyl-1H-indazol-5-yl)amino]-1,2,4-triazol-3-yl]phenoxy]acetamide] and `COc1cc(-c2nc(Nc3ccc4[nH]ncc4c3)n(C)n2)ccc1OCC(=O)NC(C)C(F)(F)F` (centres unmarked) [Example 235, 2-[4-[5-(1H-indazol-5-ylamino)-1-methyl-1,2,4-triazol-3-yl]-2-methoxy-phenoxy]-N-(2,2,2-trifluoro-1-methyl-ethyl)acetamide] cannot be ordered by IC50: under 300 nM for the first, under 300 nM for the second.

`Cn1nc(-c2ccc3c(c2)OCCC3O)nc1Nc1ccc2[nH]ncc2c1Cl` (centres unmarked) [Example 234, 7-[5-[(4-chloro-1H-indazol-5-yl)amino]-1-methyl-1,2,4-triazol-3-yl]chroman-4-ol] and `Cn1nc(-c2ccc3c(c2)CCNC3)nc1Nc1ccc2[nH]ncc2c1Cl` [Example 237, 4-Chloro-N-[2-methyl-5-(1,2,3,4-tetrahydroisoquinolin-6-yl)-1,2,4-triazol-3-yl]-1H-indazol-5-amine] fall in the same range of IC50: 300 to 3000 nM for the first, 300 to 3000 nM for the second.

`CC(C)C(=O)N1CCc2cc(-c3nc(Nc4ccc5[nH]ncc5c4Cl)n(C)n3)ccc2C1` [Example 236, 1-[6-[5-[(4-chloro-1H-indazol-5-yl)amino]-1-methyl-1,2,4-triazol-3-yl]-3,4-dihydro-1H-isoquinolin-2-yl]-2-methyl-propan-1-one] and `Cn1nc(-c2ccc3c(c2)CCN(C(=O)C2CC2)C3)nc1Nc1ccc2[nH]ncc2c1Cl` [Example 238] cannot be ordered by IC50: under 300 nM for the first, under 300 nM for the second.

First: Cn1nc(-c2ccc3c(c2)CCN(C(=O)CNCC(F)(F)F)C3)nc1Nc1ccc2[nH]ncc2c1Cl [Example 239]
Second: CCNC(=O)c1ccc(-c2nc(Nc3ccc4[nH]ncc4c3Cl)n(C)n2)cc1Cl [Example 254]
The IC50 of the first is lower: under 300 nM for the first, 300 to 3000 nM for the second. The first is the more potent here.

`COCCNC(=O)COc1ccc(-c2nc(Nc3ccc4[nH]ncc4c3Cl)n(C)n2)cc1OC` [Example 242, 2-[4-[5-[(4-chloro-1H-indazol-5-yl)amino]-1-methyl-1,2,4-triazol-3-yl]-2-methoxy-phenoxy]-N-(2-methoxyethyl)acetamide] and `COc1cc(-c2nc(Nc3ccc4[nH]ncc4c3Cl)n(C)n2)ccc1C(=O)NC1(C)CC1` [Example 264] cannot be ordered by IC50: under 300 nM for the first, under 300 nM for the second.

First: CC(=O)N1CCc2cc(-c3nc(Nc4ccc5[nH]ncc5c4C4CC4)n(C)n3)ccc2C1C (centres unmarked) [Example 248, 1-[6-[5-[(4-cyclopropyl-1H-indazol-5-yl)amino]-1-methyl-1,2,4-triazol-3-yl]-1-methyl-3,4-dihydro-1H-isoquinolin-2-yl]ethanone]
Second: CCN1CCc2cc(-c3nc(Nc4ccc5[nH]ncc5c4C4CC4)n(C)n3)ccc2C1C (centres unmarked) [Example 249, 4-cyclopropyl-N-[5-(2-ethyl-1-methyl-3,4-dihydro-1H-isoquinolin-6-yl)-2-methyl-1,2,4-triazol-3-yl]-1H-indazol-5-amine]
The IC50 of the first is lower: under 300 nM for the first, 3000 to 10000 nM for the second. The first is the more potent here.

`CC(C)NC(=O)COc1ccc(-c2nc(Nc3ccc4[nH]ncc4c3)n(C)n2)cc1Cl` [Example 250, 2-[2-chloro-4-[5-(1H-indazol-5-ylamino)-1-methyl-1,2,4-triazol-3-yl]phenoxy]-N-isopropyl-acetamide] and `CCNC(=O)c1ccc(-c2nc(Nc3ccc4[nH]ncc4c3Cl)n(C)n2)cc1` [Example 253] cannot be ordered by IC50: under 300 nM for the first, under 300 nM for the second.

`CCNC(=O)c1ccc(-c2nc(Nc3ccc4[nH]ncc4c3C3CC3)n(C)n2)cc1` [Example 251, 4-[5-[(4-cyclopropyl-1H-indazol-5-yl)amino]-1-methyl-1,2,4-triazol-3-yl]-N-ethyl-benzamide] and `Cn1nc(-c2ccc(C(=O)NC3(C)CC3)cc2)nc1Nc1ccc2[nH]ncc2c1Cl` [Example 258] cannot be ordered by IC50: under 300 nM for the first, under 300 nM for the second.

`CCc1c(Nc2nc(-c3ccc(C(=O)NC4CC4)c(OC)c3)nn2C)ccc2[nH]ncc12` [Example 252, N-cyclopropyl-4-[5-[(4-ethyl-1H-indazol-5-yl)amino]-1-methyl-1,2,4-triazol-3-yl]-2-methoxy-benzamide] and `COc1cc(-c2nc(Nc3ccc4[nH]ncc4c3Cl)n(C)n2)ccc1C(=O)NC1CN(C)C1` [Example 267] cannot be ordered by IC50: under 300 nM for the first, under 300 nM for the second.

First: Cn1nc(-c2ccc(C(=O)NC3(C)CC3)c(Cl)c2)nc1Nc1ccc2[nH]ncc2c1Cl [Example 255]
Second: CN1CC(NC(=O)c2ccc(-c3nc(Nc4ccc5[nH]ncc5c4Cl)n(C)n3)cc2Cl)C1 [Example 259]
The IC50 of the first is lower: 300 to 3000 nM for the first, 3000 to 10000 nM for the second.

`Cn1nc(-c2ccc(C(=O)NC(C)(C)C)c(Cl)c2)nc1Nc1ccc2[nH]ncc2c1Cl` [Example 256] and `Cn1nc(-c2ccc(C(=O)NC(C)(C)C)cc2)nc1Nc1ccc2[nH]ncc2c1Cl` [Example 257] cannot be ordered by IC50: under 300 nM for the first, under 300 nM for the second.

`Cn1nc(-c2ccc(C(=O)Nc3cccnc3)cc2)nc1Nc1ccc2[nH]ncc2c1Cl` [Example 260] and `Cn1nc(-c2ccc(C(=O)Nc3ccccc3)cc2)nc1Nc1ccc2[nH]ncc2c1Cl` [Example 261] cannot be ordered by IC50: under 300 nM for the first, under 300 nM for the second.

`CCNC(=O)c1ccc(-c2nc(Nc3ccc4[nH]ncc4c3Cl)n(C)n2)c(C)c1` [Example 262] and `CCNC(=O)c1ccc(-c2nc(Nc3ccc4[nH]ncc4c3Cl)n(C)n2)c(Cl)c1` [Example 265] cannot be ordered by IC50: under 300 nM for the first, under 300 nM for the second.

First: CN1CC(NC(=O)c2ccc(-c3nc(Nc4ccc5[nH]ncc5c4Cl)n(C)n3)cc2)C1 [Example 263]
Second: Cn1nc(-c2ccc(C(=O)Nc3ccccn3)cc2)nc1Nc1ccc2[nH]ncc2c1Cl [Example 266]
The IC50 of the first is higher: 300 to 3000 nM for the first, under 300 nM for the second. The second is the more potent here.
